In patent US7857804B2, “Use of Bcl inhibitors for the prevention of fibroproliferative reclosure of dilated blood vessels and other iatrogenic fibroproliferative disorders” (priority 2006, dated 2010):

How the values were obtained:
[1] = test system: cell line R1 (human cell line derived from carotid artery atherosclerotic lesion); test: MTT cell survival after fas ligation (CH11), cell line R1; type: cell-based
Method: (§1) Cells for study were derived from human carotid artery atherosclerotic lesions, by published methods. Additionally, cell lines were subcloned and tested for sensitivity to fas ligation. In the present studies, clonal lines with known resistance to fas ligation were used.
(§2) Induction of apoptosis was achieved by reduction of serum concentration from 10% to 1% FBS for 24 hours prior to adding an activating antibody to fas (CH11, Upstate Biotechnology) at a typical concentration of 50-500 ng/ml. Typically 24-48 hours after fas ligation by CH11, cell survival was determined by measuring metabolic activity by the MTT method.
However, in the presence of fas, the cells pretreated with BCLI underwent a high degree of apoptosis (70% cell death). […] Thus, the drug is neither toxic nor capable of inducing apoptosis alone at this concentration.
Referring to FIG. 1, A human cell line derived from carotid artery atherosclerotic lesion was plated at known density and then subgroups of 3 wells were treated with various drugs prior to exposure to fas ligation by the activating CH11 antibody (+fas). Pretreatment with flavopiridol (Flavo, 50 nM) or BCLI (Bcl-inh, 20 μM or 100 μM) was followed 24 hours later by addition of CH11 activating antibody to fas (50 ng/ml). After fas ligation, cell survival was evaluated 24 hours later by measuring the number of viable cells using the metabolic dye MTT, which is converted to a blue dye that absorbs at 570 nm. Values reflect the mean±s.e.m. (n=3 per group).

[2] = test system: R1GFP (human atherosclerosis-derived cell line with known resistance to fas ligation); test: MTT cell survival after fas ligation (CH11), GFP-only expressing cell line; type: cell-based; conditions: for effect on cell survival in the absence of fas (drug alone): AA3 20 μg/ml, no CH11
Method: as §1, §2
In addition to the BCL-inhibitor, this sensitizing effect was also observed with AA. As above, a human atherosclerosis-derived cell line with known resistance to fas ligation was used for study. In this case, the cell line was stably infected with a retrovirus expressing either an irrelevant marker gene (green fluorescent protein, GFP) or the marker gene and Bcl-Xl. In the GFP-only expressing cell line (R1GFP), fas ligation (50 ng/ml CH11) in low serum (1% FBS) led to only 15% cell death (85% survival) (see FIG. 2).
(§3) Referring to FIG. 2, human atherosclerosis-derived cells were pretreated with the specified drugs for 24 prior to treatment with the activating fas antibody CH11 (50 ng/ml). […] The drugs used were AA (20 μg/ml), BCLI (20 μM), interferon-gamma (IFN, 50 U/ml), and SP600125 (SP, 20 μM). The upper panel reports the MTT optical density (absorbance at 570 nm) without (control) or with fas ligation (+fas) as the mean, with error bars indicating±standard error of measurement (s.e.m., n=3 per group). The lower panel expresses % survival based on the MTT values above (MTT+fas/MTT Control)×100.

[3] = test system: R1 cells over-expressing Bcl-Xl (R1 bclXL); test: MTT cell survival after fas ligation (CH11), R1 cells over-expressing Bcl-Xl; type: cell-based, human; conditions: AA 20 μg/ml; BCLI 20 μM; IFN 50 U/ml; SP 20 μM; CH11 50 ng/ml
Method: as §2
In one example, to determine whether the effect of BCLI and AA was via interaction with their intended targets (Bcl-Xl and Bcl-2), the drugs were tested in R1 cells over-expressing Bcl-Xl (R1 bclXL).
as §3

Human lesion cells = test: MTT assay for sensitivity to fas-induced apoptosis in human lesion cells; type: cell-based; conditions: for death with fas ligation (sensitivity to apoptosis): 24 h, 20% death without drug
Method: as §1, §2
FIG. 3 depicts the effect of 2-methoxy-antimycin A3 (AA3) and gossypol on the sensitivity to apoptosis in human lesion cells. Human lesion cells were plated and treated as above for 24 hours with the specified concentrations of drug. Fas ligation was initiated with 50 ng/ml of activating antibody CH11 and 24 hours later the number of cell surviving was measured by their metabolism of MTT. Bars are mean±s.d. (n=4 per group). A reduction in MTT levels indicates cell death.
FIG. 4 depicts the effect of HA14-1 and 2,3-DCPE on sensitivity to fas-induced apoptosis. Human lesion cells were plated and treated as above for 24 hours with the specified concentrations […] of HA14-1 (H) or 2,3-DCPE (D). Fas ligation was initiated with 50 ng/ml of activating antibody CH11 and 24 hours later the number of cell surviving was measured by their metabolism of MTT. Bars are mean±s.d. (n=2 per group). A reduction in MTT levels indicates cell death.

2,9-dimethoxy-11,12-dihydrodibenzo[c,g][1,2]-diazocine 5,6-dioxide (A) and 5,5′-Dimethoxy-2,2′-dinitrosobenzyl (B) [BCLI]
effect upon cell survival in the absence of the activating antibody to fas ([1]; 20 μM, no CH11): little or no effect
effect on cell survival in the absence of fas ligation ([1]; 100 μM, no CH11): substantial effect on cell survival
cell death (apoptosis) in the presence of fas ([1]; BCLI pretreatment 20 μM, 24 h, CH11 50 ng/ml, MTT 24 h later): 70%
effect on cell survival in the absence of fas (drug alone) ([2]; BCLI 20 μM): slightly more apoptosis alone
effectiveness in Bcl-Xl over-expressing cells compared with GFP control cells [3]: markedly less effective

CCCC[C@H]1C(=O)O[C@H](C)[C@H](NC(=O)c2cccc(NC=O)c2OC)C(=O)O[C@@H](C)[C@@H]1OC(=O)CC(C)C [AA3, 2-methoxyantimycin A3]
apoptosis in the presence of fas ([2]; 24 hour pretreatment 20 μg/ml, CH11 50 ng/ml, 1% FBS): 70%
effect on cell survival in the absence of fas (drug alone) ([2]; BCLI 20 μM): only a small effect on cell survival
death with fas ligation (sensitivity to apoptosis) (Human lesion cells; 10 μg/ml, CH11 50 ng/ml): 80%
death with fas ligation (sensitivity to apoptosis) (Human lesion cells; 20 μg/ml, CH11 50 ng/ml): 80%
death in the absence of fas ligation (Human lesion cells; AA3 at higher concentrations (above 20 μg/ml), no fas ligation): induced death even in the absence of fas ligation

Cl.OCCNCCCOc1cccc(Cl)c1Cl [DCPE, 2,[[3-(2,3-dichlorophenoxy)propyl]amino]ethanol-HCl]
fas-dependent sensitization to apoptosis (Human lesion cells; only at the highest tested dose of 100 μM, CH11 50 ng/ml): significant fas-dependent sensitization to apoptosis

Cc1cc2c(C(C)C)c(O)c(O)c(C=O)c2c(O)c1-c1c(C)cc2c(C(C)C)c(O)c(O)c(C=O)c2c1O [Gossypol, 2,2′-bis(8-Formyl-1,6,7-trihydroxy-5-isopropyl-3-methylnaphthalene)]
survival in the presence of fas (Human lesion cells; 2.5 μM, CH11 50 ng/ml, 80% survival without drug): 50%

CCOC(=O)C1=C(N)Oc2ccc(Br)cc2C1C(C#N)C(=O)OCC (centres unmarked) [HA14-1, Ethyl-2-amino-6-bromo-4-(1-cyano-2-ethoxy-2-oxoethyl)-4H-chromene-3-carboxylate]
fas-independent death-inducing effect (Human lesion cells; 25-100 μM): fas-independent death-inducing effect
ability to sensitize cells to fas-induced apoptosis (Human lesion cells; HA14-1, all tested concentrations, CH11 50 ng/ml): did not demonstrate any ability to sensitize cell to apoptosis

Antimycin A [AA]
effectiveness in Bcl-Xl over-expressing cells compared with GFP control cells [3]: markedly less effective

interferon-gamma: interferon-gamma, a known sensitizing agent
sensitizing effect to fas ligation (in words) ([2]; BCLI 20 μM, interferon-gamma 50 U/ml, SP600125 20 μM, CH11 50 ng/ml): comparable effect
effectiveness in Bcl-Xl over-expressing cells compared with GFP control cells [3]: less effective
